Results on three compounds are retold here after patent US11219697B2, “Osteoadsorptive fluorogenic substrate of cathepsin k for imaging osteoclast activity and migration” (The Regents of the University of California, priority 2017, dated 2022).

A word on the Km: it is the substrate concentration at which the rate is half of its maximum.

“Also recorded” adds a separate entry of the source. Read-outs that look alike come from different tables or passages of the source. *: point of attachment. pamidronate = 1-hydroxy-1,1-bisphosphonate, amide on Lys carboxyl, O=P(O)(O)C(O)(CCN*)P(=O)(O)O; BHQ‑1 = Black Hole Quencher-1; βAla = NCCC(=O)O

For series [1] the following is noted: cited from earlier work.
In series [2] the target is T1, Cathepsin K (Homo sapiens, UniProt P43235).
T1 construct: purchased Enzo Life Sciences
T1 sequence (P43235 115-329): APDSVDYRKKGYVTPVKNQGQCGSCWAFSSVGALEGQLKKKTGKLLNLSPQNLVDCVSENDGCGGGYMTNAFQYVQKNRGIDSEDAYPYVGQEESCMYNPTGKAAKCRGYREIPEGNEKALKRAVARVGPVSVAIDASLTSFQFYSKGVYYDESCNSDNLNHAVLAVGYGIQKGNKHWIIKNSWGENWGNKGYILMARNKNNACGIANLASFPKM
The settings on record: values found in literature; cited from earlier work.

The subject of series [3] is 8226-LUC human multiple myeloma cells. The experiment in a line: OFS-1 activation by multiple myeloma in humanized BLT mice. It counts as in vivo. Conditions: humanized mice carrying 8226-LUC cells. On the procedure: FIG. 9, panels a-c, illustrates OFS-1 activation by multiple myeloma in humanized mice. 8226-LUC human multiple myeloma cells were injected to humanized BLT mice.

Series [4] in a line: Adsorption on calcium phosphate substrates. The class given is physicochemical.
The test system of another series is osteoclast activity. The experiment in a line: Fluorescence imaging of maxilla ex vivo in mice after tooth extraction. The settings on record: young mice, 5 nMol/mouse. From the text: FIG. 8, panels a-c, show White light (left) and fluorescence (right) images of mice after tooth extraction. Panel a) Vehicle control; Panel b) OFS-1 (5a) 5 nMol/mouse; Panel c) Positive control (4a) 5 nMol/mouse

In series [5] the test system is monocyte-derived human osteoclasts. The series is described as follows: Osteoclasts cultured on calcium phosphate coated microwells preadsorbed with probe, fluorescence timelapse. The class given is cell-based. An excerpt:
We attribute this to a lack of calcium phosphate for the probe to bind to. In several cases, osteoclasts can be seen migrating on the surface without completely dissolving the calcium phosphate and leaving a trail of enhanced fluorescence in their wake (see, e.g., FIG. 4). This is how the probe is presumed to function in vivo, by fluorescently labeling any regions exposed to osteoclast resorptive activity. […] Another phenomenon observed in all videos was a transient decrease in fluorescence within the boundaries of the osteoclast sealing zone, seen as rapidly moving dark areas around the cells (see, e.g., FIG. 5). This effect was expected and results from the pH sensitivity of carboxyfluorescein. The pH under an active osteoclast has been reported to be as low as 4.5 (Teitelbaum (2000) Science, 289(5484): 1504-1508). Carboxyfluorescein cyclizes to a nonfluorescent form when protonated and has a pKa of approximately 6.5 (Han & Burgess (2010) Chem. Rev. 110: 2709-2728; Massou et al. (2000) Biochem. Educ. 28:171-173). Thus fluorescent intensity is decreased. This is further evidence that the probe is exposed to the sub-osteoclast environment as intended. Another phenomenon observed in the timelapses was concentrated fluorescent intensity in cells themselves, both attached and detached from the substrate. […]

The test system of a further series is human osteoclasts. The experiment in a line: Human osteoclasts co-cultured with human multiple myeloma cells (8226-LUC). The settings on record: co-cultured with 8226-LUC. The class given is cell-based.
The target of series [6] is T1, Cathepsin K. The experiment in a line: Enzyme studies: cleavage of the probe by activated cathepsin K, initial rates, Lineweaver-Burke plot. It counts as biochemical. As to the method: Kinetic parameters Kcat and Km were determined from initial rates at 37° C. and pH 5.5 in a buffer consisting of 50 mM sodium acetate buffer with 2.5 mM EDTA, 1 mM DTT and 0.01% TRITON X-100®. Enzyme concentration was 2.5 nM, substrate concentration ranged from 0.0781 to 2.50 μM. Fluorescence measurements were done every 1 min using a Biotek Synergy H4 plate reader with black Corning 3720 96-well plates. Parameters were determined using a Lineweaver-Burke plot. Fluorescence calibration was obtained using compound 9a at concentrations between 0.00977 and 2.5 μM. Background fluorescence was estimated using intact 10a at concentrations ranging from 0.0781 to 2.50 μM.
Cathepsin K was prepared by activation of procathepsin K purchased from Enzo Life Sciences. Activation was carried out by adding […], pH 3.5 sodium acetate buffer in a 1:2 ratio to as-received proenzyme solution and leaving at 21° C. for 30 min before dilution with assay buffer. Solutions of activated enzyme were stored on ice and used within 10 min. Buffers were prepared in house according to concentrations provided by Enzo Life Sciences.

Turning to `O=C(O)c1ccc2c(c1)C(=O)OC21c2ccc(O)cc2Oc2cc(O)ccc21` [Carboxyfluorescein, 5-carboxyfluorescein], the pKa result in series [1] is given as “approximately 6.5”.
For the compound Abz-HPGGPQ-EDN2Ph, at Cathepsin K [2], the “Kcat (literature value)” value was 0.5 ± 0.03 s⁻¹ and the Km was 1.2 ± 0.2 µM.
Consider “OFS-1: bone-targeted pamidronate probe with 5-FAM fluorophore and BHQ-1 quencher linked by cathepsin K peptide Gly-His-Pro-Gly-Gly-Pro-Gln-Gly ({BHQ‑1}-GHPGGPQG-{βAla-K(5-FAM)-pamidronate})”, for which, in series [3], the “Probe activation / fluorescent signal at multiple myeloma engrafted sites” value was “localized at the multiple myeloma (8226-LUC) engrafted site; also recorded: Strong activation”. For the same compound, the “Adsorption on calcium phosphate substrates” value in series [4] is “avidly adsorbed on calcium phosphate substrates; also recorded: found to adsorb on calcium phosphate substrates”. For the same compound, the “Fluorescent signal in maxilla ex vivo after tooth extraction” value in the series on osteoclast activity is recorded as “increased fluorescent signal in maxilla ex vivo; also recorded: enhanced signal in response to tooth extraction”. Besides, the “Fluorescent signal in response to osteoclast resorptive activity” value in series [5] is “give a fluorescent signal in response to resorptive activity”. Further, the “Fluorescent signal in response to osteoclast resorptive activity” value in series [5] (listed as USC FRET-1) was “increased fluorescence around cells that were actively resorbing hydroxyapatite (HA)”. For the same compound, the “OFS-1 activation by osteoclasts in co-culture with multiple myeloma cells” value with human osteoclasts was “significantly increased OFS-1 activation”. Also, in the series with Cathepsin K [6] (in solution at 37° C., pH 5.5), the Kcat was 0.2 ± 0.03 s⁻¹ and the Km amounted to 1.7 ± 0.2 µM. The “Cleavage/activation by cathepsin K” value with Cathepsin K [6] (purified cathepsin K) is on record as “cleaved by cathepsin K albeit at a slower rate; also recorded: activated by purified cathepsin K”.
